Assay results published in patent US7378436B2, “Compounds” (Pfizer Inc., priority 2003, dated 2008).
Where a name gives a salt, the structure may show the parent alone.

Experiments:
[1] = molecular target: T1, human noradrenaline transporter (hNET) (Homo sapiens, UniProt P23975); experiment: Inhibition of 3H-noradrenaline uptake in HEK-293 cells expressing hNET; format: cell-based; settings: HEK-293 cells with hNET; 3H-noradrenaline 200 nM; 15 min incubation at 25° C.; read-out: NRI IC50
T1 construct: expressed in transfected cells; host or cells: HEK-293
Method: (§1) The compounds were tested for biological activity by their ability to inhibit the uptake of serotonin and/or noradrenaline by human serotonin and/or noradrenaline transporters as follows.
(§2) (i) Cell Culture • Human embryonic kidney cells (HEK-293) stably transfected with either the human serotonin transporter (hSERT), noradrenaline transporter (hNET) or dopamine transporter (hDAT) were cultured under standard cell culture techniques (cells were grown at 37° C. and 5% CO2in either Dulbecco's Modified Eagle's Medium (DMEM) culture media supplemented with 10% dialysed foetal calf serum (FCS), 2 mM L-glutamine and 250 μg/ml geneticin (hSERT and hNET cells) or DMEM-culture media supplemented with 5% FCS, 5% new-born calf serum, 2 mM L-glutamine and […] (hDAT cells)). Prior to assay, cells were harvested by dissociation using cell dissociation solution (Sigma) and centrifugation, and resuspended in standard assay buffer (see below) at a viable cell density of 750,000 cells/ml.
(§3) (i) Determination of Inhibitor Potency • All test compounds were dissolved in 100% DMSO at 4 mM and diluted down in 1% DMSO in water to give appropriate test concentrations. Assays were carried out in 96-well filter bottom plates. Cells expressing the appropriate human transporter protein (75,000 cells/assay well) were pre-incubated at 25° C. in standard assay buffer containing either test compound, a standard inhibitor (positive control) or compound vehicle (DMSO in water; final DMSO concentration was 0.1% in each assay well) for 5 minutes. Reactions were started by addition of either ^3H-serotonin, ^3H-noradrenaline or ^3H-dopamine substrates. All reactions were carried out at 25° C. in a shaking incubator. Incubation times were 5 minutes for the hSERT and hDAT assays and 15 minutes for the hNET assay. Reactions were terminated by addition of ice-cold wash buffer (see below), followed by filtration of the assay mixture using a vacuum manifold and rapid washing with icecold wash buffer. The quantity of ^3H-substrate incorporated into the cells was then quantified: Filtered/washed assay plates were dried at 45° C. for 1 hour, scintillation fluid added, and radioactivity measured by scintillation counting. Potency of test compounds was quantified as IC50 values (concentration of test compound required to inhibit the specific uptake of radiolabelled substrate into the cells by 50% relative to maximum (compound vehicle only) and minimum (complete inhibition by standard inhibitor) responses).
(§4) (iii) Standard Assay Buffer Composition: • Tris(hydroxymethyl)amino methane hydrochloride (26 mM) • NaCl (124 mM) • KCl (4.5 mM) • KH2PO4 (1.2 mM) • MgCl2.6H2O (1.3 mM) • Ascorbic acid (1.136 mM) • Glucose (5.55 mM) • pH 7.40 • CaCl2 (2.8 mM) • Pargyline (100 μM) • Note: The pH of the buffer was adjusted to 7.40 with 1 M NaOH before addition of CaCl2 and pargyline. • Wash Buffer Composition: • Tris(hydroxymethyl)methylamine (26 mM) • NaCl (124 mM) • KCl (4.5 mM) • KH2PO4 (1.2 mM) • MgCl2.6H2O (1.3 mM) • Ascorbic acid (1.136 mM) • pH 7.40 at 4° C. with 6M HCl
(§5) (iv) Summary of Assay Parameters

[2] = molecular target: T2, human serotonin transporter (hSERT) (Homo sapiens, UniProt P31645); experiment: Inhibition of 3H-serotonin uptake in HEK-293 cells expressing hSERT; format: cell-based; settings: HEK-293 cells with hSERT; 3H-5HT 50 nM; 5 min incubation at 25° C.; read-out: SRI IC50
T2 construct: expressed in transfected cells; host or cells: HEK-293
Method: as §1, §2, §3, §4, §5

T2 sequence (P31645 whole entry): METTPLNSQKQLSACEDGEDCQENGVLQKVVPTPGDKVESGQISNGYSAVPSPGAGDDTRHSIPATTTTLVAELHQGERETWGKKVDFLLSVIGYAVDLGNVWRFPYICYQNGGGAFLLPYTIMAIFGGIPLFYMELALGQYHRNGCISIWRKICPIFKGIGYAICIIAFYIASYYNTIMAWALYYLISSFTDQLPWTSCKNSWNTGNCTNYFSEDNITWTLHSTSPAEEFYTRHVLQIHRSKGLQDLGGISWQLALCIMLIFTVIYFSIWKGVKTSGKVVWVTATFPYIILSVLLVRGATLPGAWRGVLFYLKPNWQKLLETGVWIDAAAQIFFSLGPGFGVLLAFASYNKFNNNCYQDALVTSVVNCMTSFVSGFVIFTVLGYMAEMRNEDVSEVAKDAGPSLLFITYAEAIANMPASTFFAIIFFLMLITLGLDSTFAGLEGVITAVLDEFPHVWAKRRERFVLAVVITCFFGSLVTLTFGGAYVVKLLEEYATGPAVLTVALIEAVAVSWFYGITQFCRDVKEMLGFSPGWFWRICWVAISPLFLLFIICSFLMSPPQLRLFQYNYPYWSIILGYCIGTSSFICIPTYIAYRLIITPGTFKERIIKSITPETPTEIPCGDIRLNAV
T1 sequence (P23975 whole entry): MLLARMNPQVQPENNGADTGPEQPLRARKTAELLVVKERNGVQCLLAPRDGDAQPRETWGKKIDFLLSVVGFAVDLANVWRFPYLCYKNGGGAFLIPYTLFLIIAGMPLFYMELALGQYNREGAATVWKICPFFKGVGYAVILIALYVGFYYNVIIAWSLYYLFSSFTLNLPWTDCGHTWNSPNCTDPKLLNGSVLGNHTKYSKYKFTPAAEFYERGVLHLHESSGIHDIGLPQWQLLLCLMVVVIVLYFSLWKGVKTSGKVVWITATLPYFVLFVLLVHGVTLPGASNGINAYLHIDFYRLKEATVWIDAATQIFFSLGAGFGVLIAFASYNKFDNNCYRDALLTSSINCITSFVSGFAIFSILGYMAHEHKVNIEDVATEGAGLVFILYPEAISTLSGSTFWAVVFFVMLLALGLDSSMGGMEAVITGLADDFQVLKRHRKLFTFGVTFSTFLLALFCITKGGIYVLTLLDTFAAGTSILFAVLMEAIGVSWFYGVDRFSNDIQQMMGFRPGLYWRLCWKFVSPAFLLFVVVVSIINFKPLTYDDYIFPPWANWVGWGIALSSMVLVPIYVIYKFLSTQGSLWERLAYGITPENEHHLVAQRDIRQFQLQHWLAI

Row | Compound | IC50 [1] [nM] | IC50 [2] [nM]
1 | CC(C)CN(C(=O)c1ccc(Cl)c(Cl)c1)[C@H]1CCNC1 [Example 8, 3,4-Dichloro-N-isobutyl-N-[(3S)-pyrrolidin-3-yl]benzamide] | 16.7 | 7.5
2 | Cc1c(F)cccc1C(=O)N(CC(C)C)[C@H]1CCNC1 [Example 4, 3-Fluoro-2-methyl-N-isobutyl-N-[(3S)-pyrrolidin-3-yl]benzamide] | 45.9 | 18.8
3 | O=C(c1ccccc1)N(Cc1ccc2ccccc2c1)[C@@H]1CCNC1 [Example 10, N-(2-Naphthylmethyl)-N-[(3R)-pyrrolidin-3-yl]benzamide hydrochloride] | 7.7 | 7.6
4 | CC(C)CN(C(=O)c1cc(F)c(Cl)cc1Cl)[C@H]1CCNC1 [Example 15, 2,4-Dichloro-5-fluoro-N-isobutyl-N-[(3S)-pyrrolidin-3-yl]benzamide hydrochloride] | 71.6 | 17.5
5 | O=C(c1ccc(Cl)cc1)N(Cc1ccc(Cl)c(Cl)c1)[C@@H]1CCNC1 [Example 13, 4-Chloro-N-(3,4-dichlorobenzyl)-N-[(3R)-pyrrolidin-3-yl]benzamide hydrochloride] | 3.1 | 8.8
6 | Cc1cccc(C(=O)N(CC(C)C)[C@H]2CCNC2)c1Cl [Example 3, 2-Chloro-3-methyl-N-isobutyl-N-[(3S)-pyrrolidin-3-yl]benzamide] | 21.2 | 22.3
7 | CCCCN(C(=O)c1cccc2ccccc12)[C@H]1CCNC1 [Example 12, N-Butyl-N-[(3S)-pyrrolidin-3-yl]-1-naphthamide hydrochloride] | 26.3 | 21.5
8 | O=C(c1ccccc1)N(Cc1ccc2ccccc2c1)[C@H]1CCNC1 [Example 9, N-(2-Naphthylmethyl)-N-[(3S)-pyrrolidin-3-yl]benzamide hydrochloride] | 14 | 5.7
9 | CC(C)CN(C(=O)c1ccc(Cl)cc1Cl)[C@H]1CCNC1 [Example 2, 2,4-Dichloro-N-isobutyl-N-[(3S)-pyrrolidin-3-yl]benzamide hydrochloride] | 28.5 | 9.7
10 | CC(C)CN(C(=O)c1ccc(Cl)cc1)[C@H]1CCNC1 [Example 7, 4-Chloro-N-isobutyl-N-[(3S)-pyrrolidin-3-yl]benzamide] | 55.4 | 5.7
11 | CC(C)CN(C(=O)c1cccc(Cl)c1Cl)[C@H]1CCNC1 [Example 1, 2,3-Dichloro-N-isobutyl-N-[(3S)-pyrrolidin-3-yl]benzamide citrate] | 14.1 | 13.9
12 | CC(C)CN(C(=O)c1cccc(Cl)c1)[C@H]1CCNC1 [Example 6, 3-Chloro-N-isobutyl-N-[(3S)-pyrrolidin-3-yl]benzamide] | 56.9 | 45.2
13 | CC(C)CN(C(=O)c1ccc2ccccc2c1)[C@H]1CCNC1 [Example 11, N-Isobutyl-N-[(3S)-pyrrolidin-3-yl]-2-naphthamide hydrochloride] | 17 | 3.2
14 | COc1cccc(C(=O)N(CC(C)C)[C@H]2CCNC2)c1C [Example 5, 3-Methoxy-2-methyl-N-isobutyl-N-[(3S)-pyrrolidin-3-yl]benzamide] | 32.9 | 10.9
15 | O=C(c1ccc(Cl)cc1)N(Cc1cccc(Cl)c1Cl)[C@@H]1CCNC1 [Example 14, 4-Chloro-N-(2,3-dichlorobenzyl)-N-[(3R)-pyrrolidin-3-yl]benzamide hydrochloride] | 57.1 | 43
